Reference: patent US11408885B2, “Compositions and multiplex assays for characterizing active proteases and their inhibitors” (Massachusetts Institute of Technology, priority 2017, dated 2022)
Values belong to the molecule of their own block, whether it stands above or below them.

Key:
MMP9 [1] = target: T1, MMP9 (Homo sapiens, UniProt P14780); assay: Competitive-MAMBI: loss of HxBP-Bt probe labeling with competitive inhibitor; assay type: binding; parameters: The recombinant catalytic domains of human MMPs 7 and 9 were purchased from Enzo Life Sciences, and of MMP 12 from Anaspec; purchased Enzo Life Sciences; conditions: MMP9 (gelatinase); inhibitor 0.17-7.5 μM, HxBP-Bt 0.5 μM
Description: (§1) The MAMBI platform was utilized for characterization of inhibitors, in which the HxBP-Bt probe binding to active metalloproteinase was assayed in the presence of small molecule metalloproteases inhibitors. The relative inhibitor potencies were quantified by the loss of labeling by activity-based probe of a target protease with the addition of a competitive inhibitor. Selectivity was additionally estimated by monitoring relative potencies across an enzyme superfamily.
(§2) The relative inhibition by 10 commercially available inhibitors was characterized in a mixture of six recombinant MMPs, as well as in menstrual serum effluent.
(§3) Protease labeling was reported as a fraction of MAMBI signal without competitive inhibition.
Target sequence in this assay (P14780 107-449 limits assumed): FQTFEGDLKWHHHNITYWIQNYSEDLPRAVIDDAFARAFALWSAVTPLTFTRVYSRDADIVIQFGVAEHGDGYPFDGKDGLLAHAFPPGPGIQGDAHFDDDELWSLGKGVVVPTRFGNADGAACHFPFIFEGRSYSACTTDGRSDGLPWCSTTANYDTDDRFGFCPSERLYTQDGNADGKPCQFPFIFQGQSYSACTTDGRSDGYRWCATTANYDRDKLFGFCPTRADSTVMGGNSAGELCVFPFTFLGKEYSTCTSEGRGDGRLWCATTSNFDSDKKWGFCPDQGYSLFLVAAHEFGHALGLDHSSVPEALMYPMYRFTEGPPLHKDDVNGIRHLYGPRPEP

MMP2 [2] = target: T2, MMP2 (Homo sapiens, UniProt P08253); assay: as above; assay type: binding; parameters: purchased Peprotech; conditions: inhibitor 0.17-7.5 μM, HxBP-Bt 0.5 μM
T2 sequence (P08253 110-660): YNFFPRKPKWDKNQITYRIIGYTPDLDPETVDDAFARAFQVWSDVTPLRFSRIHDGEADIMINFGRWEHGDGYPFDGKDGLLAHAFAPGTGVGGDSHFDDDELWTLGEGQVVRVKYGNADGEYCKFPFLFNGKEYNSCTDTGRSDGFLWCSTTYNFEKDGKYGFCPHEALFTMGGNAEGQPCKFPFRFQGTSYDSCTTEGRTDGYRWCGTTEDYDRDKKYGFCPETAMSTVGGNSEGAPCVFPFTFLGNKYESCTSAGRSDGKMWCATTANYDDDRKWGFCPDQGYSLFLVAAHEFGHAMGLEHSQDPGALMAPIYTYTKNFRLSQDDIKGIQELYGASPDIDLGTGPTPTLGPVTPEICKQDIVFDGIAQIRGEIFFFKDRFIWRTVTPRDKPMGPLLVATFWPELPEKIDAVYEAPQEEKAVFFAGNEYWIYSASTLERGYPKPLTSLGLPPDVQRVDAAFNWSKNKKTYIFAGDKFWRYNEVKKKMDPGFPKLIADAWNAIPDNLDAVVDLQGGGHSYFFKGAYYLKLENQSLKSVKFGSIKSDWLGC

MMP3 [3] = target: T3, MMP3 (Homo sapiens, UniProt P08254); assay: as above; assay type: binding; parameters: purchased Peprotech; conditions: recombinant and menstrual effluent, inhibitor 0.17-7.5 μM, HxBP-Bt 0.5 μM
Description: as §1, §2, §3
Target sequence in this assay (P08254 100-477): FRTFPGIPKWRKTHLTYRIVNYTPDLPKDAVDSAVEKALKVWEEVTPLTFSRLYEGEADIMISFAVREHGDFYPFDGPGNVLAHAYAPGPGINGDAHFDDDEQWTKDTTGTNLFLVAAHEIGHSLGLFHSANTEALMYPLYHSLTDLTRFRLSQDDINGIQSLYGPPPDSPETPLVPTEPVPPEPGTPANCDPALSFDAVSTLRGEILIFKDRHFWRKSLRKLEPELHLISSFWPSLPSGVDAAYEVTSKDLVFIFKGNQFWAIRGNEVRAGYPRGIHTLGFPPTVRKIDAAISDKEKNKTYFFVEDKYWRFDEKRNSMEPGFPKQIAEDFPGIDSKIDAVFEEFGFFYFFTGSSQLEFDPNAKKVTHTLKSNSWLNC

MMP9 [4] = target: T1, MMP9; conditions: literature; cited from earlier work
Target sequence in this assay (P14780 94-707, species assumed): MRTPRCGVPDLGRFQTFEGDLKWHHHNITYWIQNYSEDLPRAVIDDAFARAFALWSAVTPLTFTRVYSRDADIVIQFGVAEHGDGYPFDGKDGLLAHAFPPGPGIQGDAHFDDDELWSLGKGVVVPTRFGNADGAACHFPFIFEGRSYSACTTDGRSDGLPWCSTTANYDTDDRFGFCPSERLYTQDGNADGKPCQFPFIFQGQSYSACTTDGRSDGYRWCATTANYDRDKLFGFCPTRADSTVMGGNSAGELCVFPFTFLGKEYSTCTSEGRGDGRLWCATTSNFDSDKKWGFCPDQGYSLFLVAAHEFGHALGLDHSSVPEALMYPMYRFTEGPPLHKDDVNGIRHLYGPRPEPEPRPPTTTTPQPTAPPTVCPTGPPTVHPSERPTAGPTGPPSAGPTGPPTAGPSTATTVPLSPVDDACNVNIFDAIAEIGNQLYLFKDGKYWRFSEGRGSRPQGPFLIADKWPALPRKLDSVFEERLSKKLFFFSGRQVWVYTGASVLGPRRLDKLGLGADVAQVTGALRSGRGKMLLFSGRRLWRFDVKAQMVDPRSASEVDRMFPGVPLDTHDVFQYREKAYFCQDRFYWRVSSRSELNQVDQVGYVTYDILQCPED

MMP7 [5] = target: T4, MMP7 (Homo sapiens, UniProt P09237); conditions: literature; cited from earlier work
T4 sequence (P09237 95-267): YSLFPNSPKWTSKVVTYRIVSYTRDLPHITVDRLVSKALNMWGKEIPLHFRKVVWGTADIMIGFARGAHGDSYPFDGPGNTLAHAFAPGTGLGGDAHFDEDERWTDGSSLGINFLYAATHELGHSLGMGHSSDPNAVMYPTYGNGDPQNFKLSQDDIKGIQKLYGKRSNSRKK

MMP2 [6] = target: T2, MMP2; conditions: literature; cited from earlier work
MMP1 = target: T5, MMP1 (Homo sapiens, UniProt P03956); assay: Competitive-MAMBI: loss of HxBP-Bt probe labeling with competitive inhibitor; assay type: binding; parameters: purchased Peprotech; conditions: recombinant and effluent derived samples, inhibitor 0.17-7.5 μM, HxBP-Bt 0.5 μM
T5 sequence (P03956 100-469): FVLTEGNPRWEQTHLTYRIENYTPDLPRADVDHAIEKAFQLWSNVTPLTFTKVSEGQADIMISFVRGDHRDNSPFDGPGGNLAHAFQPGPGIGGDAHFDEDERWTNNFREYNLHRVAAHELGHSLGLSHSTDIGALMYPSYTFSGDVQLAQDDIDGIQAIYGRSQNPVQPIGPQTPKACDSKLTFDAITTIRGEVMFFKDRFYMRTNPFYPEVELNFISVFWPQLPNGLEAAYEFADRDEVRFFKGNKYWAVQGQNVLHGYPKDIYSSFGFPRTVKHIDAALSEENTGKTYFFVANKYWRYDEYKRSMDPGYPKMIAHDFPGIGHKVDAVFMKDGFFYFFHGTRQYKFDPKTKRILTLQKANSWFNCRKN

MMP7 [7] = target: T4, MMP7; assay: as above; assay type: binding; parameters: The recombinant catalytic domains of human MMPs 7 and 9 were purchased from Enzo Life Sciences, and of MMP 12 from Anaspec; purchased Enzo Life Sciences; conditions: recombinant and effluent derived samples, inhibitor 0.17-7.5 μM, HxBP-Bt 0.5 μM
Description: as §1, §2, §3

MMP12 = MMP12 (Homo sapiens, UniProt P39900); conditions: literature; cited from earlier work
MMP3 [8] = target: T3, MMP3; conditions: literature; cited from earlier work
Target sequence in this assay (P08254 100-477, species assumed): as the sequence (P08254 100-477) above

[9] = system: panel of MMPs (MMP1, MMP2, MMP3, MMP7, MMP9, MMP12); assay: Competitive-MAMBI: loss of HxBP-Bt probe labeling with competitive inhibitor; assay type: binding, human; conditions: recombinant MMPs and menstrual effluent; inhibitor 0.17-7.5 μM, HxBP-Bt 0.5 μM
active recombinant MMPs = conditions: single recombinant MMPs, 500 nM HxBP-Bt
Description: A single active recombinant MMP (5 nM by mass, 5 μL total vol) was incubated with HxBP-Bt (30 min at 37° C., 500 nM final HxBP-Bt concentration) under reversible binding conditions. Tested MMPs included MMP1, MMP2, MMP3, MMP7, MMP8, MMP9, MMP10, MMP12, and MMP13. Each containing biotin-labeled MMP (MMP reversibly bound to HxBP-Bt) was then incubated with a cocktail of MMP capture beads (60 minutes, RT, 25 μL total vol).
A cocktail of MMP capture beads diluted in Microparticle Diluent 3 (R&D systems; PN 895857) (17.5 μL bead suspension) was added to the HxBP-Bt-labeled sample (7.5 μL) in a 384-well plate (60 minutes, with rotary agitation, room temperature). Samples were washed 3 times with PBS 0.1% TWEEN®-20 (300 μl each wash) using the Magnetic BioTek plate washer (405 Select TS), incubated with Streptavidin-R-Phycoerythrin (10 μg/mL) diluted in diluted wash buffer concentrate (R&D systems; PN 895003) (15 minutes, with rotary agitation, room temperature), and again washed 3 times by plate washer. Samples were immediately characterized using the FLEXMAP 3D system (Luminex).

MMP12, sequence (P39900 106-470, species assumed): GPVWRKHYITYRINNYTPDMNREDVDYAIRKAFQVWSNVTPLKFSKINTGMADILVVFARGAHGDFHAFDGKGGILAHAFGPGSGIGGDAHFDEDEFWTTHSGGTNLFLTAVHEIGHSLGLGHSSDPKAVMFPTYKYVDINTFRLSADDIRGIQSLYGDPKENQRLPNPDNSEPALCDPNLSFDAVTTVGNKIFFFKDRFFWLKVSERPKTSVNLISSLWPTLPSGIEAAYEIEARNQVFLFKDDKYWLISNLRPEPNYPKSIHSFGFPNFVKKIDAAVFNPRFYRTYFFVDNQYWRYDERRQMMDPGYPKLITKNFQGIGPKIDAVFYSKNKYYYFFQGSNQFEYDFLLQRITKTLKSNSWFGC

SMILES: O=S(=O)(CC1CS1)c1ccc(Oc2ccccc2)cc1 (stereo not shown) [SB 3CT, SB-3CT]
inhibitory activity (loss of probe labeling) (MMP9 [1]): did not prevent the binding of HxBP-Bt

inhibitory activity (loss of probe labeling) (MMP2 [2]): increased potency
inhibitory activity (loss of probe labeling) (MMP3 [3]): increased potency
SMILES: CC(C)ON([C@@H](C(=O)NO)C(C)C)S(=O)(=O)c1ccc(-c2ccccc2)cc1 [ARP 101]

inhibitory activity (loss of probe labeling) (MMP2 [2]): did not prevent the binding of HxBP-Bt
inhibitory activity (loss of probe labeling) (MMP9 [1]): did not prevent the binding of HxBP-Bt
SMILES: O=P(O)(O)C(NS(=O)(=O)c1ccc(-c2ccc(Cl)cc2)cc1)P(=O)(O)O [MMP inhibitor 2, MMP Inhibitor 2 IV]
IC50 (MMP9 [4]): > 1000 nM

SMILES: O=C(O)C[C@@H](NC(=O)c1cc(-c2ccc(-c3ccncc3)cc2)cs1)c1ccccc1 [PF 356231]
IC50 (MMP7 [5]): 96000 nM
IC50 (MMP2 [6]): > 100 nM

SMILES: CN1C(=O)N(CC(C(=O)NO)[C@H](CC2CCCC2)C(=O)N2CCCCC2)C(=O)C1(C)C (stereo partly shown) [Ro32-3555, Ro 32-3555 (Trocade)]
Ki (MMP9 [4]): 95 nM
inhibitory activity (loss of probe labeling) (MMP1): significant potency
Ki (MMP7 [5]): 42 nM
inhibitory activity (loss of probe labeling) (MMP7 [7]): significant potency
Ki (MMP2 [6]): 154 nM

inhibitory activity (loss of probe labeling) (MMP3 [3]): expected inhibition of MMP3
SMILES: COC[C@H](NC(=O)[C@H](NC(=O)[C@@H](CCCc1ccc(-c2ccccc2)c(C)c1)CC(=O)O)C(C)(C)C)c1ccccc1 [UK 370106]
IC50 (MMP9 [4]): 30400 nM
IC50 (MMP7 [5]): 5800 nM
IC50 (MMP12): 42 nM
IC50 (MMP3 [8]): 23 nM

SMILES: CNC(=O)[C@@H](NC(=O)[C@H](CC(C)C)[C@H](O)C(=O)NO)C(C)(C)C [Marimastat]
inhibitory activity (loss of probe labeling) [9]: inhibitory activity toward every protease tested

inhibitory activity (loss of probe labeling) (MMP3 [3]): expected inhibition of MMP3
SMILES: N#Cc1ccc(-c2ccc(OCCC(=O)NO)cc2)cc1 [MMP Inhib 3 VII, MMP3 Inhibitor VII]

effect on HxBP-Bt binding (MAMBI signal) (active recombinant MMPs): completely eliminated HxBP-Bt binding
SMILES: O=C(O)CN(CCN(CC(=O)O)CC(=O)O)CC(=O)O [EDTA, Ethylenediaminetetraacetic acid]

SMILES: CNC(=O)[C@H](Cc1ccccc1)NC(=O)[C@H](CC(C)C)[C@H](CSc1cccs1)C(=O)NO [Batimastat]
IC50 (MMP9 [4]): 1 nM
inhibitory activity (loss of probe labeling) [9]: inhibitory activity toward every protease tested
IC50 (MMP7 [5]): 6 nM
inhibitory activity (loss of probe labeling) (MMP3 [3]): stronger inhibitory activity against MMP3 compared with Marimastat
